Measurements from the supplement of paper PMC13380429.

How the values were obtained:
Conditions in all cases: 72 h
Caco-2 [1] = assay: cell viability relative to DMSO; higher = less toxic
Calu-3 [2] = assay: as above
HepG2 [3] = assay: as above
U2OS [4] = assay: as above
Vero E6 [5] = assay: as above
Caco-2 [6] = assay: relative viability EC50 (midpoint between 100% and the lowest measured viability); higher = less toxic
Calu-3 [7] = assay: as above
HepG2 [8] = assay: as above
U2OS [9] = assay: as above
Vero E6 [10] = assay: as above
Caco-2 [11] = assay: drug sensitivity score (DSS) for viability; higher = more toxic; extreme values may be limits of the assay
Calu-3 [12] = assay: as above
HepG2 [13] = assay: as above
U2OS [14] = assay: as above
Vero E6 [15] = assay: as above

SMILES	cell viability (Caco-2 [1]; 1 nM)	cell viability (Caco-2 [1]; 10 nM)	cell viability (Caco-2 [1]; 100 nM)	cell viability (Caco-2 [1]; 1000 nM)	cell viability (Caco-2 [1]; 10000 nM)	cell viability (Calu-3 [2]; 1 nM)	cell viability (Calu-3 [2]; 10 nM)	cell viability (Calu-3 [2]; 100 nM)	cell viability (Calu-3 [2]; 1000 nM)	cell viability (Calu-3 [2]; 10000 nM)	cell viability (HepG2 [3]; 1 nM)	cell viability (HepG2 [3]; 10 nM)	cell viability (HepG2 [3]; 100 nM)	cell viability (HepG2 [3]; 1000 nM)	cell viability (HepG2 [3]; 10000 nM)	cell viability (U2OS [4]; 1 nM)	cell viability (U2OS [4]; 10 nM)	cell viability (U2OS [4]; 100 nM)	cell viability (U2OS [4]; 1000 nM)	cell viability (U2OS [4]; 10000 nM)	cell viability (Vero E6 [5]; 1 nM)	cell viability (Vero E6 [5]; 10 nM)	cell viability (Vero E6 [5]; 100 nM)	cell viability (Vero E6 [5]; 1000 nM)	cell viability (Vero E6 [5]; 10000 nM)	relative viability EC50 (Caco-2 [6])	relative viability EC50 (Calu-3 [7])	relative viability EC50 (HepG2 [8])	relative viability EC50 (U2OS [9])	relative viability EC50 (Vero E6 [10])	drug sensitivity score (Caco-2 [11])	drug sensitivity score (Calu-3 [12])	drug sensitivity score (HepG2 [13])	drug sensitivity score (U2OS [14])	drug sensitivity score (Vero E6 [15])
Cc1cc(OCCN2CCOCC2)nn1-c1ccc2ccccc2c1 [API-001]	93.2%	91.8%	96.4%	94.1%	92%	98.5%	83.4%	107%	115%	96.7%	102%	111%	89.9%	102%	103%	98.2%	98.5%	102%	101%	102%	96.3%	96%	91.9%	94.8%	103%	> 10 µM	> 10 µM	> 10 µM	> 10 µM	> 10 µM	0	0	0	0	0
COc1ccccc1N1CCN(CCN2C(=O)c3ccccc3C(C)(C)C2=O)CC1 [ARC-239]	102%	101%	91.3%	98.2%	92.6%	105%	104%	100%	102%	95%	107%	95%	106%	102%	97.3%	96.8%	95.3%	97.9%	101%	95.9%	104%	95.2%	102%	102%	103%	> 10 µM	> 10 µM	> 10 µM	> 10 µM	> 10 µM	0	0	0	0	0
O=C(N[C@H]1CCN(C(=O)c2cc(C(F)(F)F)cc(C(F)(F)F)c2)[C@H](Cc2ccc(Cl)cc2)C1)c1ccnc2ccccc12 [AV-608]	89.3%	95%	96.1%	97.4%	75.5%	115%	98.6%	101%	94.2%	99.4%	96.2%	103%	98.9%	98.3%	97.3%	101%	98.8%	93.5%	100%	95.5%	96%	100%	101%	97.5%	95.7%	> 10 µM	> 10 µM	> 10 µM	> 10 µM	> 10 µM	1.3	0	0	0	0
